Source: article PMC7130106 (Drug Design, Development and Therapy, 2020)
“Also recorded” adds a separate entry of the source.

Tests used:
[1] = tested on: intracellular amastigote stages of L. donovani; assay: Synergy evaluation, combination index method with amphotericin B; assay type: cell-based, Leishmania donovani
[2] = tested on: L. donovani promastigotes; details: read-out: IC50 on L. donovani promastigotes; ref 38 (Patterson et al); cited from earlier work
[3] = tested on: various clinical isolates of L. donovani; details: read-out: lowest IC50, L. donovani isolates obtained from Ethiopia; ref 38 (Patterson et al); cited from earlier work
L. mexicana = details: read-out: IC50 on L. mexicana; ref 28 (Berry et al); cited from earlier work
[4] = cited from earlier work
[5] = co-administered with tenofovir, efavirenz, ritonavir and rifampin; cited from earlier work
[6] = tested on: Leishmania donovani promastigotes; assay type: cell-based

| SMILES | synergistic activity with amphotericin B [1] | IC50 [2] [nM] | IC50 [3] [nM] | IC50 (L. mexicana) [nM] | renal excretion [4] [%] | volume of distribution ([4]; in words) | interaction with anti-retroviral and anti-TB drugs [5] | inhibition of promastigotes in primary screening ([6]; 1 μM, 72 h, average of two independent experiments in triplicate) | dose-dependent inhibitory effect in subsequent dose titration assay ([6]; promastigotes) |
| --- | --- | --- | --- | --- | --- | --- | --- | --- | --- |
| C[C@]1(COc2ccc(N3CCC(Oc4ccc(OC(F)(F)F)cc4)CC3)cc2)Cn2cc([N+](=O)[O-])nc2O1 [MMV688262, delamanid] | synergistic effect; also recorded: synergistic activity | 15 | 86.5 | 1780 | < 5 | high volume of distribution | no clinically relevant interaction |  |  |
| CC(C)(C)C(O)C(Oc1ccc(-c2ccccc2)cc1)n1cncn1 (stereo not drawn) [MMV688942] |  |  |  |  |  |  |  | considerable activity | failed to demonstrate a dose-dependent inhibitory effect |
